Experimental data as given in PMC6572293, “Antihypertensive Effects of Corn Silk Extract and Its Novel Bioactive Constituent in Spontaneously Hypertensive Rats: The Involvement of Angiotensin-Converting Enzyme Inhibition” (Molecules, 2019).
Where two headings read alike, the source gives them in different places. Peptide text beside a SMILES is read from it.

What was measured:
ACE (serum) [1] = target: T1, ACE (serum) (Mus musculus, UniProt P09470); experiment: ACE activity assay, H-HL substrate; type: biochemical, mouse (BALB/c serum)
T1 construct: Mouse sera collected from normal BALB/c mice were used as the source of soluble somatic ACE; from tissue; host or cells: serum of normal BALB/c mice
T1 sequence (P09470 35-1237 limits assumed): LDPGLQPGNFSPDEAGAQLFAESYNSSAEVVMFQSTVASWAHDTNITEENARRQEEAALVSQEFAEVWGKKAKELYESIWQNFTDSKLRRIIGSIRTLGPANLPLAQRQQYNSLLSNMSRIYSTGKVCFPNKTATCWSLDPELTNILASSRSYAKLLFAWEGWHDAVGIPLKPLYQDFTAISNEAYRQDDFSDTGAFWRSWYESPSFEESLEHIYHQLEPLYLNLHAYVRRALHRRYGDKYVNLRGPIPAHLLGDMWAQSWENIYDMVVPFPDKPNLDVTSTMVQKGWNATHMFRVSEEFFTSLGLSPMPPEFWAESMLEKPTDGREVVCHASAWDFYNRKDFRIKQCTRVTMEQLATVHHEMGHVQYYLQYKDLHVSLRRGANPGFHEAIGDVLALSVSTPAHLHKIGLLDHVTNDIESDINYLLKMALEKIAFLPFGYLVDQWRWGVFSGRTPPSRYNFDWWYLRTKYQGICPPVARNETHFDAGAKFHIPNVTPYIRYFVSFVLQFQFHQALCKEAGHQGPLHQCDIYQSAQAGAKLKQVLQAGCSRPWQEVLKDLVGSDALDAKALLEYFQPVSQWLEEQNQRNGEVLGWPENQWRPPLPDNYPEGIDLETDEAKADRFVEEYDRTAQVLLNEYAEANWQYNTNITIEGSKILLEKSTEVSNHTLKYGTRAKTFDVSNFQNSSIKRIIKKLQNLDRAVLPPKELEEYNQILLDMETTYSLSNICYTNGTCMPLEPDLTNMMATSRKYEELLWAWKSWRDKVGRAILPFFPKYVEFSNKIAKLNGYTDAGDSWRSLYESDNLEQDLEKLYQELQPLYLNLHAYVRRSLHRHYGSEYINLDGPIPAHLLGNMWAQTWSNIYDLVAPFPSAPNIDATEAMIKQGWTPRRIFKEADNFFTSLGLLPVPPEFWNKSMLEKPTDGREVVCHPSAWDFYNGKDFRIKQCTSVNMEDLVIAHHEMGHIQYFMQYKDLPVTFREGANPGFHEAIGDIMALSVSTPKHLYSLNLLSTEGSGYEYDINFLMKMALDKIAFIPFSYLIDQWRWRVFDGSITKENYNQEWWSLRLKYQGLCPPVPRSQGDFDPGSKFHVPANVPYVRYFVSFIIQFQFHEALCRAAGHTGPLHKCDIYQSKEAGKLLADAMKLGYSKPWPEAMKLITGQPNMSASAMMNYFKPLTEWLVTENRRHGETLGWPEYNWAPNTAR
Description: (§1) Various amounts of CSBp5 were mixed with mouse sera in the presence of H-HL or Z-FHL substrate, and the ACE activity was determined by measuring the fluorescence-labeled hydrolyzed substrates.
(§2) ACE activity assay was performed as described previously with a slight modification. Mouse sera collected from normal BALB/c mice were used as the source of soluble somatic ACE. ACE activity in mouse serum was determined as described previously. […] To correct the intrinsic fluorescence of mouse serum, blank was performed according to the aforementioned procedures without inhibitors.

ACE (serum) [2] = target: T1, ACE (serum); experiment: ACE activity assay, Z-FHL substrate; type: biochemical, mouse (BALB/c serum); settings: various concentrations
Description: as §1, §2

[3] = tested on: spontaneously hypertensive rats (SHRs); experiment: Tail-cuff systolic blood pressure in spontaneously hypertensive rats; type: in vivo, rat (male SHR); settings: SHR; for Decrease of SBP, intraperitoneal: 1 h after injection
Description: Male SHRs (200–250 g, 10 week-old) were purchased from National Laboratory Animal Center (Taipei, Taiwan). Rats were maintained under a 12 h day/12 h night cycle and had free access to water and food. Rat experiments were conducted under ethics approval from China Medical University Animal Care and Use Committee (Permit No. 104-75-N). SHRs with tail SBP ≥ 180 mmHg were randomly divided into five groups with six rats per group. Rats were given intraperitoneally or orally with 400 μL of distilled water (blank), captopril (Catalog No. C4042), or various dosages of CSE or peptide (dissolved in water). SBP was measured by a tail-cuff apparatus (Non-Invasive Blood Pressure System, Panlab, Barcelona, Spain). Rats were placed in a warm holder kept at 37 ± 1 °C for 10 min before the measurement. Changes in SBP were calculated by subtracting SBP at indicated time point from SBP at 0 h.

SHRs [4] = experiment: Tail diastolic blood pressure in spontaneously hypertensive rats; type: in vivo, rat (male SHR); settings: SHR, oral, various dosages of CSBp5, 0 and 1 h; n = 6
Description: Male SHRs (200–250 g, 10 week-old) were purchased from National Laboratory Animal Center (Taipei, Taiwan). Rats were maintained under a 12 h day/12 h night cycle and had free access to water and food. Rat experiments were conducted under ethics approval from China Medical University Animal Care and Use Committee (Permit No. 104-75-N).
SHRs with tail SBP ≥ 180 mmHg were randomly divided into five groups with six rats per group. Rats were given intraperitoneally or orally with 400 μL of distilled water (blank), captopril (Catalog No. C4042), or various dosages of CSE or peptide (dissolved in water). SBP was measured by a tail-cuff apparatus (Non-Invasive Blood Pressure System, Panlab, Barcelona, Spain). Rats were placed in a warm holder kept at 37 ± 1 °C for 10 min before the measurement. Changes in SBP were calculated by subtracting SBP at indicated time point from SBP at 0 h.
Antihypertensive Effects of Corn Silk Extract and
Its Novel Bioactive Constituent in Spontaneously
Hypertensive Rats: The Involvement of
Angiotensin-Converting Enzyme Inhibition
Chia-Cheng Li 1, Yu-Chen Lee 2,3, Hsin-Yi Lo 1, Yu-Wen Huang 4, Chien-Yun Hsiang 5,* and […]
μmol/kg captopril or various dosages of CSBp5. Tail diastolic blood pressure was measured
at 0 and 1 h. Data are expressed as diastolic blood pressure (mmHg) (top panel) or changes in […]

ACE N-domain = ACE N-domain selective inhibitor; cited from earlier work
Source text: Somatic ACE is composed of two similar catalytic domains (N- and C-domains).

[5] = tested on: healthy human subjects and animals; settings: exogenously administered angiotensin I, no reference given; cited from earlier work
Source text: CSE was a protein-rich extract and the protein content of CSE was 10.86%. Moreover, the well-known ACE inhibitors are amino acid or dipeptide drugs. Therefore, we proposed that there were bioactive peptides responsible for the anti-hypertensive activities of CSE. Proteomics and bioinformatics analyses were further applied to identify the anti-hypertensive bioactive peptides in CSE. Peptides with anti-hypertensive potentials have been determined from corn. For example, dipeptide Ala-Tyr (AY) has been identified from corn gluten meal, a major byproduct of corn wet milling. AY affects the ACE act ...

ACE = settings: cited from earlier work
Source text: (§3) Food peptides with anti-ACE activities have been identified from plants and animals. For example, oligopeptides FDGIP and AIDPVRA are ACE inhibitor derived from Caulerpa lentillifera. […] Peptides from auto-digested reishi (Ganoderma lingzhi) extract show potent inhibition against ACE and hypotensive activities in SHRs. Lacto-tr ... || CSE was a protein-rich extract and the protein content of CSE was 10.86%. Moreover, the well-known ACE inhibitors are amino acid or dipeptide drugs. Therefore, we proposed that there were bioactive peptides responsible for the anti-hypertensive activities of CSE. Proteomics and bioinformatics analyses were further applied to identify the anti-hypertensive bioactive peptides in CSE. Peptides with anti-hypertensive potentials have been determined from corn. For example, dipeptide Ala-Tyr (AY) has been identified from corn gluten meal, a major byproduct of corn wet milling. AY affects the ACE act ...

SHRs [6] = settings: SHR, cited from earlier work
Source text: as §3

[7] = from Coix glutelin; cited from earlier work
Source text: (§4) Food peptides with anti-ACE activities have been identified from plants and animals. For example, oligopeptides FDGIP and AIDPVRA are ACE inhibitor derived from Caulerpa lentillifera. […] Peptides from auto-digested reishi (Ganoderma lingzhi) extract show potent inhibition against ACE and hypotensive activities in SHRs. Lacto-tr ...

endothelial function = settings: in vitro; cited from earlier work
Source text: as §4

[8] = tested on: subjects with blood pressure ranging from normal to mild hypertension; settings: intake of tablets containing VPP and IPP; cited from earlier work
Source text: as §4

[9] = intraperitoneal, 10 μmol/kg, tail-cuff, mean ± standard error, n = 6

Compound: CC(C)C[C@H](NC(=O)[C@H](CC(N)=O)NC(=O)[C@H](CC(=O)O)NC(=O)[C@H](Cc1ccccc1)NC(=O)[C@H](CCCCN)NC(=O)[C@@H](N)CO)C(=O)N[C@@H](Cc1ccc(O)cc1)C(=O)NCC(=O)N[C@@H](CS)C(=O)N[C@@H](CCCNC(=N)N)C(=O)O [CSBp5] (H-SKFDNLYGCR-OH; N-terminus and C-terminus assumed)
- Domain preference of ACE inhibition (in words) (ACE (serum) [1]; H-HL versus Z-FHL hydrolysis): a more effective inhibition on the C-domain of ACE
- Inhibition of ACE activity, H-HL (in words) (ACE (serum) [1]; mouse serum ACE, H-HL, various concentrations): inhibited the ACE activity and the inhibition displayed a dose-dependent manner
- Inhibition of ACE activity, Z-FHL (in words) (ACE (serum) [2]): inhibited the ACE activity and the inhibition displayed a dose-dependent manner
- Decrease of SBP, intraperitoneal [3, 9]: 28.33 ± 12.5 mmHg
- Decrease of SBP, intraperitoneal (in words) ([3]; intraperitoneal, various dosages, 1 h): decreased SBP levels in a dose-dependent manner
- Decrease of SBP, oral ([3]; oral, 10 μmol/kg, 1 h, tail-cuff, mean ± standard error, n = 6): 36.78 ± 13.25 mmHg
- Decrease of SBP at 2 h (time course) ([3]; oral, 10 μmol/kg): ~30 mmHg
- Duration of SBP decrease (in words) ([3]; oral, 10 μmol/kg, measured at 0, 1, 2, 4 and 6 h): persistent during a 6-h measurement
- Decrease of SBP, oral (in words) ([3]; oral, various dosages, 1 h): decreased the SBP levels in a dose-dependent manner
- Changes in diastolic blood pressure (in words) (SHRs [4]): consistent with the changes in SBP

Compound: CC(=O)N[C@@H](CC(=O)O)C(=O)N[C@@H](Cc1ccccc1)P(=O)(O)C[C@@H](C)C(=O)N[C@@H](C)C(N)=O [RXP407]
- Effect on blood pressure (in words) (ACE N-domain): no effect on blood pressure

Compound: C[C@H](CS)C(=O)N1CCC[C@H]1C(=O)O [captopril]
- Angiotensin I-induced elevation of blood pressure (in words) [5]: attenuated or abolished
- Decrease of SBP, intraperitoneal [3, 9]: 52.83±19.06 mmHg
- Decrease of SBP at 2 h (time course) ([3]; oral, 10 μmol/kg): approximately 60 mmHg
- SBP level lower than that of the blank group ([3]; oral, 10 mg/kg, SBP at 0 and 1 h, tail-cuff, mean ± standard error, n = 6): 47.6 ± 4.34 mmHg

Compound: AIDPVRA [oligopeptide derived from Caulerpa lentillifera]
- ACE inhibition (in words) (ACE; from Caulerpa lentillifera): ACE inhibitor

Compound: Ala-Tyr [AY]
- IC50 (ACE; read-out: IC50, ACE): 14.2 µM
- Maximal reduction of SBP (SHRs [6]; oral, 50 mg/kg, 2 h): 9.5 mmHg

Compound: FDGIP [oligopeptide derived from Caulerpa lentillifera]
- ACE inhibition (in words) (ACE; from Caulerpa lentillifera): ACE inhibitor

Compound: GAAGGAF
- Antihypertensive effect (in words) [7]: significant antihypertensive effect

Compound: Ile-Pro-Pro [IPP, lacto-tripeptide from sour milk]
- Endothelial function (in words) (endothelial function): protect the endothelial function in vitro
- Improvement in hypertension and side effects (in words) [8]: mild improvement in hypertension without side effects
- ACE inhibition (in words) (ACE; sour milk peptides): inhibit the ACE activity
- Anti-hypertensive effect in SHRs (in words) (SHRs [6]): exhibit anti-hypertensive effects in SHRs

Compound: Met-Ile/Leu-Pro-Pro [tetrapeptide from hydrolyzed zein]
- IC50, ACE in vitro (ACE): 70.32 µg/mL
- IC50 (ACE; read-out: IC50, ACE in vitro): 155 µM

Compound: Val-Pro-Pro [VPP, lacto-tripeptide from sour milk]
- Endothelial function (in words) (endothelial function): protect the endothelial function in vitro
- Improvement in hypertension and side effects (in words) [8]: mild improvement in hypertension without side effects
- ACE inhibition (in words) (ACE; sour milk peptides): inhibit the ACE activity
- Anti-hypertensive effect in SHRs (in words) (SHRs [6]): exhibit anti-hypertensive effects in SHRs
